Experimental data published in patent publication US20210228741A1, “METHODS AND COMPOSITIONS TO STIMULATE RETINAL REGENERATION” (UNIVERSITY OF WASHINGTON, priority 2018, published 2021).

Legend:
WT retinas = settings: mouse, in vivo
Source text: A) Experimental paradigm for analyzing STAT3 phosphorylation by western blot in MG. P11 retinas were dissociated and grown in a growth media containing mEGF for 7 DIV. MG were passaged to eliminate residual neurons and cultured in a media containing doxycycline to induce Ascl1 expression for 6 DIV. […] B) Representative images from confluent cultures of non-treated, DOX-treated, and DOX+STATi-treated MG just before harvesting. C) Representative western blot for pSTAT3 (Y705), STAT3, and Beta-actin on non-treated, Dox-treated, and Dox+STATi-treated MG cultures. […] Scale bars for B and E are 25 and 40 μm, respectively.
Immunohistochemistry (IHC): Upon euthanasia of adult mice, eyes were removed and comeas dissected away. Globes were then fixed for 1 hour in 4% PFA in PBS followed by an overnight incubation in 30% sucrose in PBS at 4° C. Fixed eyes were then frozen in O.T.C. (Sakura Finetek) at −80° C. until sectioned. Frozen eyes were sectioned on a cryostat (Leica) at 16-18 μm thick and were stored at −20° C. until staining. All washes were 3 times 20 minutes in PBS on a rotating plate at room temperature. Slides were washed then blocked in 10% normal horse serum, 0.5% Triton X-100 in PBS for a minimum of 1 hour prior to primary. All primary antibodies were diluted in blocking solution and applied to tissue for a minimum of 3 hours. […]

[1] = system: Ascl1 binding at STAT3 bound regions; experiment: Ascl1 ChIP-seq on control and STATi-treated cultured MG; format: cell-based, mouse; settings: cultured P12 MG, doxycycline-induced Ascl1
Experimental: To directly assess the effect that STAT pathway activation has on Ascl1 binding at Id genes and more broadly across the genome during MG reprogramming, we performed an Ascl1 ChIP-seq on control and STATi-treated MG. Frozen stocks of MG from P12 germline-rtTA:tetO429 Ascl1 mice were thawed and cultured to confluency for 2 days in high FBS growth media. Cells were then given a low FBS media with STATi or vehicle for the remaining 4 DIV. At 3 DIV (1 day after STATi), doxycyline was administered to induce Ascl1 overexpression in the MG. Cells were then collected and fixed for ChIP-seq after 6 DIV. FASTQ files were aligned to the mm10 genome using Bowtie2 and peaks were called using MACS2. […] Both datasets contained the canonical Ascl1 E-box as the top scoring motif, as determined by HOMER, with strong central enrichment of peaks from both datasets around the Ascl1 motif. […]
Ascl1 Chromatin Immunoprecipitation-Sequencing (ChIP-Seq): P0 retinas or cultured, post-natal day 12, Müller glia (+/−Ascl1 overexpression, rtTA germline:tetO-Ascl1-ires-GFP mice ±doxycycline) were digested with papain/DNase to single cells and fixed with 0.75% formaldehyde for 10 minutes at room temperature. […] Libraries were prepared with standard Illumina adaptors and sequenced to an approximate depth of 36 million reads each. Sequence reads (36 bp) were mapped to the mouse mm9 genome using bwa (v 0.7.12-r1039). […]

[2] = system: Ascl1-reporter Müller glia; experiment: miRNA mimic/antagomiR transfection of P11 MG cultures from Ascl1-CreER:tdTomato reporter mice; format: cell-based, mouse
Source text: To test whether miRNAs regulate the neurogenic competence of MG, we used primary dissociated cell cultures, since this method has proven effective for identifying reprogramming factors that are effective both in vitro and in vivo (Jorstad et al., 2017; Pollak et al., 2013; Ueki et al., 2015). We hypothesized that miRNAs highly expressed in RPCs may be important in establishing and maintaining the RPC gene expression pattern. One prediction of this hypothesis is that over-expression of the RPC-miRNAs in MG would cause the MG to adopt a progenitor-like gene expression profile. […]
MG cultures from P11 Ascl1-CreER:tdTomatoflSTOP/flSTOP mice were transfected with either a cocktail of all four RPC-miR mimics, or each miRNA mimic individually (FIG. 10B). We added 4-Hydroxy-tamoxifen to the cultures to activate the cre-recombinase and monitored the cells for tdTomato expression. […]
Müller glia were dissociated (see above) from postnatal day (P) 11/12 mice and adult (one month, 2, and 4 months) and grown in Neurobasal medium supplemented with N-2, tetracycline-free 10% fetal bovine serum (FBS, Clontech), and epidermal growth factor (EGF, R&D Systems, 100 ng/mL) as described previously (Ueki et al., 2012). […] EdU was added either with the onset of culturing to track cell proliferation of MG lineage or after transfection to quantify cell proliferation due to the treatment. […]

Compound	toxicity (TUNEL staining) (WT retinas)	Ascl1 binding (ChIP-seq peaks) at STAT3 bound regions near Id1 and Id3 [1]	Ascl1:tdTomato+ cells (Ascl1-reporter expression) ([2]; P11 MG cultures, days post-transfection vs control)	conversion of MG into a neuronal/RPC phenotype ([2]; young (P11) MG in vitro, summary statement)
CN(CC(=O)N(Cc1ccc(C2CCCCC2)cc1)c1ccc(C(=O)O)cc1)S(=O)(=O)c1c(F)c(F)c(F)c(F)c1F [SH-4-54]	not found to be toxic	Decreased Ascl1 binding		
miR-25: miR-25 mimic, CAUUGCACUUGUCUCGGUCUGA (SEQ ID NO: 22); double-stranded, preprocessed miRNA (double-stranded mimic, other strand not given here)			significant increase	approximately 40%
